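96-well plates; 48 h exposure; 5 concentrations. Endpoints by linear interpolation between flanking doses. Not reached: highest tested concentration assigned. GI50: concentration for 50% inhibition of growth. The concentration for full growth arrest is given as TGI.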
Columns and labels:
Experiment in all cases: NCI-60 cell line screen, 48 h
[1] = test system: MDA-MB-468 breast
[2] = test system: 786-0 renal
[3] = test system: A498 renal
[4] = test system: A549 NSCLC
[5] = test system: ACHN renal
[6] = test system: BT-549 breast
[7] = test system: CAKI-1 renal
[8] = test system: CCRF-CEM leukemia
[9] = test system: COLO 205 colon
[10] = test system: DU-145 prostate
[11] = test system: EKVX NSCLC
[12] = test system: HCC-2998 colon
[13] = test system: HCT-116 colon
[14] = test system: HCT-15 colon
[15] = test system: HL-60(TB) leukemia
[16] = test system: HOP-62 NSCLC
[17] = test system: HOP-92 NSCLC
[18] = test system: HS 578T breast
[19] = test system: HT29 colon
[20] = test system: IGROV1 ovarian
[21] = test system: K-562 leukemia
[22] = test system: KM12 colon
[23] = test system: LOX IMVI melanoma
[24] = test system: M14 melanoma
[25] = test system: MALME-3M melanoma
[26] = test system: MCF7 breast
[27] = test system: MDA-MB-435
[28] = test system: MOLT-4 leukemia
[29] = test system: NCI-H226 lung
[30] = test system: NCI-H23 lung
[31] = test system: NCI-H460 lung
[32] = test system: NCI-H522 lung
[33] = test system: NCI/ADR-RES ovarian
[34] = test system: OVCAR-3 ovarian
[35] = test system: OVCAR-4 ovarian
[36] = test system: OVCAR-5 ovarian
[37] = test system: OVCAR-8 ovarian
[38] = test system: PC-3 prostate
[39] = test system: RPMI-8226 leukemia
[40] = test system: RXF 393 renal
[41] = test system: SF-268 CNS
[42] = test system: SF-295 CNS
[43] = test system: SF-539 CNS
[44] = test system: SK-MEL-2 melanoma
[45] = test system: SK-MEL-28 melanoma
[46] = test system: SK-MEL-5 melanoma
[47] = test system: SK-OV-3 ovarian
[48] = test system: SN12C renal
[49] = test system: SNB-75 CNS
[50] = test system: SW-620 colon
[51] = test system: TK-10 renal
[52] = test system: U251 CNS
[53] = test system: UACC-257 melanoma
[54] = test system: UACC-62 melanoma

CC(C)CCC(=O)[C@@H](C)[C@H]1[C@@H](OC2OCC(O)C(O)C2NS(C)(=O)=O)C[C@H]2[C@@H]3CC=C4C[C@@H](O)CC[C@]4(C)[C@H]3CC[C@]12C (some centres undefined)
GI50 [1]: 3.38 µM
TGI [1]: 11.2 µM

COC(=O)c1ccc2c(c1)c1c(C)c3ccncc3c(C)c1n2C
GI50 [1]: 0.767 µM
TGI [1]: 15.2 µM

Nc1nc(N)c2c(n1)NC(c1ccc(Cl)cc1)CC(c1ccc(Nc3nc(NCCO)nc(Nc4ccc(Cl)cc4)n3)cc1)=N2 (centres undefined)
GI50 [1]: 1.39 µM
TGI [1]: 2.79 µM

CC[C@@H](C)Nc1cc(C(=O)NC2CC3CCC(C2)N3c2ccc(C(=O)C3CC3)cn2)c(C)cc1C(N)=O (some centres undefined)
GI50 [1]: 0.0189 µM
TGI [1]: 0.0838 µM

C/C=C(/C)C(=O)OC1C=C(CO)C(=O)C(OC(=O)C(C)(O)C(C)Cl)C1C(C)C (centres undefined)
GI50 [1]: 1.05 µM
TGI [1]: 2.8 µM

O=C(Nc1cccc(Cl)c1)c1cc(N=Nc2ccc([N+](=O)[O-])cc2Cl)ccc1O
GI50 [1]: 2.91 µM
TGI [1]: > 100 µM

Cc1nnc(-c2ccc(C)c(-c3ccc(C(=O)NCc4ccc(Cl)cc4)cc3)c2)o1
GI50 [1]: 2.91 µM
TGI [1]: 15.1 µM

COc1cc(-c2ccc(NC(=O)NC3CC3)c(OC)c2)ccc1NC(=O)NC1CC1
GI50 [1]: > 100 µM
TGI [1]: > 100 µM

C=C1CC[C@@H]2[C@]3(C)COC(c4cn[nH]c4-c4ccc(Br)cc4)O[C@@H]3CC[C@@]2(C)[C@@H]1C/C=C1/C(=O)OCC1O (some centres undefined)
GI50 [2]: 5.75 µM
TGI [2]: 18.8 µM
GI50 [3]: 16.8 µM
TGI [3]: 30.6 µM
GI50 [4]: 11.1 µM
TGI [4]: 26.4 µM
GI50 [5]: 2.16 µM
TGI [5]: 6.16 µM
GI50 [6]: 2.88 µM
TGI [6]: 12.3 µM
GI50 [7]: 8.18 µM
TGI [7]: 22 µM
GI50 [8]: 2.81 µM
TGI [8]: 44.2 µM
GI50 [9]: 4.45 µM
TGI [9]: 18.1 µM
GI50 [10]: 8.24 µM
TGI [10]: 23.6 µM
GI50 [11]: 4.68 µM
TGI [11]: 17.7 µM
GI50 [12]: 9.11 µM
TGI [12]: 21.4 µM
GI50 [13]: 1.94 µM
TGI [13]: 5.19 µM
GI50 [14]: 1.97 µM
TGI [14]: 5.3 µM
GI50 [15]: 2.3 µM
TGI [15]: 17.6 µM
GI50 [16]: 18.9 µM
TGI [16]: 37.3 µM
GI50 [17]: 5.08 µM
TGI [17]: 22.7 µM
GI50 [18]: 17.7 µM
TGI [18]: > 100 µM
GI50 [19]: 2.8 µM
TGI [19]: 10.5 µM
GI50 [20]: 13.8 µM
TGI [20]: 30.9 µM
GI50 [21]: 2.24 µM
TGI [21]: 15.4 µM
GI50 [22]: 7.16 µM
TGI [22]: 29.2 µM
GI50 [23]: 1.37 µM
TGI [23]: 2.72 µM
GI50 [24]: 3.4 µM
TGI [24]: 16.7 µM
GI50 [25]: 3.98 µM
TGI [25]: 17.7 µM
GI50 [26]: 2.13 µM
TGI [26]: 10.4 µM
GI50 [27]: 3.24 µM
TGI [27]: 15.3 µM
GI50 [1]: 2.47 µM
TGI [1]: 9.41 µM
GI50 [28]: 2.86 µM
TGI [28]: 13.6 µM
GI50 [29]: 1.93 µM
TGI [29]: 4.32 µM
GI50 [30]: 10.5 µM
TGI [30]: 23.1 µM
GI50 [31]: 12.6 µM
TGI [31]: 29.7 µM
GI50 [32]: 2.08 µM
TGI [32]: 5.75 µM
GI50 [33]: 2.2 µM
TGI [33]: 6.91 µM
GI50 [34]: 2.08 µM
TGI [34]: 4.49 µM
GI50 [35]: 5.02 µM
TGI [35]: 32.8 µM
GI50 [36]: 10 µM
TGI [36]: 23.1 µM
GI50 [37]: 3.24 µM
TGI [37]: 61.9 µM
GI50 [38]: 4.08 µM
TGI [38]: 30.3 µM
GI50 [39]: 2.56 µM
TGI [39]: > 100 µM
GI50 [40]: 1.9 µM
TGI [40]: 4.42 µM
GI50 [41]: 16.5 µM
TGI [41]: 42.3 µM
GI50 [42]: 12.1 µM
TGI [42]: 25.4 µM
GI50 [43]: 2.2 µM
TGI [43]: 5.67 µM
GI50 [44]: 5.85 µM
TGI [44]: 20.8 µM
GI50 [45]: 2.13 µM
TGI [45]: 4.95 µM
GI50 [46]: 10.4 µM
TGI [46]: 23.4 µM
GI50 [47]: 16.8 µM
TGI [47]: 32.2 µM
GI50 [48]: 7.51 µM
TGI [48]: 21.5 µM
GI50 [49]: 7.04 µM
TGI [49]: 25.7 µM
GI50 [50]: 2.33 µM
TGI [50]: 6.36 µM
GI50 [51]: 18.4 µM
TGI [51]: 33.4 µM
GI50 [52]: 6.83 µM
TGI [52]: 19.9 µM
GI50 [53]: 11.8 µM
TGI [53]: 27.5 µM
GI50 [54]: 3.44 µM
TGI [54]: 15.8 µM

O=C(NNC(=S)Nc1ccccc1)c1ccccn1
GI50 [1]: 2.84 µM
TGI [1]: 90.9 µM

COc1cc2ncn(-c3cc(OCc4ccccc4C(F)(F)F)c(C(C)=O)s3)c2cc1OC
GI50 [1]: > 23.3 µM
TGI [1]: > 25 µM

O=S(=O)(Nc1ccc2ccccc2c1)c1ccc(-c2cnc(C3CC3)o2)cc1
GI50 [1]: 0.327 µM
TGI [1]: 12 µM

CC1(O)Cc2c(O)c3c(c(O)c2CC1O)C(=O)C=CC3=O (centres undefined)
GI50 [1]: 0.553 µM
TGI [1]: 1.93 µM

CC[C@]12C=CCN3CC[C@@]4(c5ccc(OC)cc5N(C)[C@H]4[C@@](O)(C(=O)OC)[C@@H]1OC(=O)CCC(=O)N[C@H](Cc1c[nH]c4ccccc14)C(=O)OC)[C@@H]32
GI50 [1]: 1.64 µM
TGI [1]: 3.14 µM

CC(C)(C)NC/C(=C\c1ccccc1)C(=O)c1ccccc1
GI50 [1]: 0.713 µM
TGI [1]: 2.18 µM

CCOC(=O)c1csc(NC(=O)COc2cccc(/C=C3\CSc4ccccc4C3=O)c2)n1
GI50 [1]: 0.0661 µM
TGI [1]: 0.185 µM

Oc1ccc(CSc2nnc(-c3ccc(Cl)cc3)o2)c2cccnc12
GI50 [1]: 2.47 µM
TGI [1]: > 100 µM

O=C(Nc1nc(-c2ccc(Cl)cc2)nc2c1sc(=S)n2-c1ccccc1)C(F)(F)F
GI50 [1]: 3.79 µM
TGI [1]: 20.5 µM

COc1ccc(/C=C\c2cc(OC)c(OC)c(OC)c2)c(O)c1O
GI50 [1]: 0.0741 µM
TGI [1]: 21.4 µM

O=C(Nc1cccnc1)c1ccc2ccc3ccc(C(=O)Nc4cccnc4)nc3c2n1
GI50 [1]: 0.0697 µM
TGI [1]: 0.442 µM

C=C1CCC2C3(C)COC(c4ccc(Cl)cc4)OC3CCC2(C)C1/C=C/C1=CCOC1=O (centres undefined)
GI50 [1]: 0.502 µM
TGI [1]: 6.25 µM

CCCCCCN(C)Cc1ccc(OCCOc2ccc(CN(C)CCCCCC)cc2)cc1
GI50 [1]: 1.16 µM
TGI [1]: 2.48 µM

O=C(Nc1ccc2c(c1)OCO2)C(=O)c1c[nH]c2cc(F)ccc12
GI50 [1]: 5.7 µM
TGI [1]: 67.9 µM

COc1cc(/C=C\c2cc(/C=C\c3ccc(O)c(OC)c3)n(C(=O)CNc3ccc(Cl)cc3)n2)ccc1O
GI50 [1]: 3.17 µM
TGI [1]: 9.69 µM

CCOc1c(C#N)c2c(N)ncnc2n1C1OC(CO)C(O)C1O (centres undefined)
GI50 [1]: 1.75 µM
TGI [1]: 5.98 µM

CC(=O)C1CCC2C3CC=C4CC(SC(=N)N)CCC4(C)C3CCC12C (centres undefined)
GI50 [1]: 1.54 µM
TGI [1]: 2.9 µM

CC(C)(C)c1ccc(O)c(CN(Cc2cc(C(C)(C)C)ccc2O)C2CCCCC2)c1
GI50 [1]: 4.4 µM
TGI [1]: 19.2 µM

CN1CCN(Cc2ccc(NC(=O)c3cncc(C#Cc4cnn5ccccc45)c3)cc2C(F)(F)F)CC1
GI50 [1]: 0.965 µM
TGI [1]: 2.08 µM

O=C(Cn1c(C(=O)c2ccccc2)nc2ccccc21)c1ccc(F)cc1
GI50 [1]: 2.02 µM
TGI [1]: 16.6 µM

— PubChem BioAssay (NCI)
